In ChEMBL document CHEMBL5233252, “Single and dual target inhibitors based on Bcl-2: Promising anti-tumor agents for cancer therapy” (Eur J Med Chem, 2020):
pEC50, pIC50, pKd, pKi: −log10 of the molar value. Where a SMILES comes first, the peptide text is derived from it.

Columns and labels:
[1] = molecular target: T1, Apoptosis regulator Bcl-2 (Homo sapiens, UniProt P10415); assay: Inhibition of Flu-BakBH3 binding to recombinant GST-tagged Bcl-2 (unknown origin) incubated for 30 mins by competitive fluorescence polarization assay
T1 sequence (P10415 whole entry): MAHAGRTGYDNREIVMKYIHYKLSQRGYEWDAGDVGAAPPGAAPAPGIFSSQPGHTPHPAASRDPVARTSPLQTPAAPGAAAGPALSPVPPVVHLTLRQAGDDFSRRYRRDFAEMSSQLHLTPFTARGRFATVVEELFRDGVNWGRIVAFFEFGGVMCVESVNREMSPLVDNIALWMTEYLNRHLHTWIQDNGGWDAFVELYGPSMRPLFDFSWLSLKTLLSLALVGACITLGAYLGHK

[2] = molecular target: T1, Apoptosis regulator Bcl-2; assay: Binding affinity to Bcl-2 (unknown origin) by ELISA analysis
[3] = molecular target: T1, Apoptosis regulator Bcl-2; assay: Inhibition of Bcl-2 (unknown origin) by ELISA analysis
[4] = Inhibition of Bcl-2/Mcl-1 in human MCF7 cells; assay type: cell-based
[5] = molecular target: T1, Apoptosis regulator Bcl-2; assay: Binding affinity to recombinant Bcl-2 (unknown origin) expressed in Escherichia coli BL21 (DE3) cells assessed as dissociation constant by MST analysis
Bcl-2-like protein 1 [6] = molecular target: T2, Bcl-2-like protein 1 (Homo sapiens, UniProt Q07817); assay: Binding affinity to Bcl-xL (unknown origin) assessed as inhibition constant
T2 sequence (Q07817 whole entry): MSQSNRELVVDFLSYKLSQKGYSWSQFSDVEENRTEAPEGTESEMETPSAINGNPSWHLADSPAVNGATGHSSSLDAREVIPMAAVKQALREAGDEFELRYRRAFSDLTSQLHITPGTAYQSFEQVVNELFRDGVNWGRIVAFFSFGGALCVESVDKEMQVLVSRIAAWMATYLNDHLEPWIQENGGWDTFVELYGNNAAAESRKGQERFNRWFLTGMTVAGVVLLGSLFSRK

[7] = molecular target: T1, Apoptosis regulator Bcl-2; assay: Binding affinity to Bcl-2 (unknown origin) assessed as inhibition constant
[8] = molecular target: T3, Induced myeloid leukemia cell differentiation protein Mcl-1 (Homo sapiens, UniProt Q07820); assay: Binding affinity to Mcl-1 (unknown origin) assessed as inhibition constant
T3 sequence (Q07820 whole entry): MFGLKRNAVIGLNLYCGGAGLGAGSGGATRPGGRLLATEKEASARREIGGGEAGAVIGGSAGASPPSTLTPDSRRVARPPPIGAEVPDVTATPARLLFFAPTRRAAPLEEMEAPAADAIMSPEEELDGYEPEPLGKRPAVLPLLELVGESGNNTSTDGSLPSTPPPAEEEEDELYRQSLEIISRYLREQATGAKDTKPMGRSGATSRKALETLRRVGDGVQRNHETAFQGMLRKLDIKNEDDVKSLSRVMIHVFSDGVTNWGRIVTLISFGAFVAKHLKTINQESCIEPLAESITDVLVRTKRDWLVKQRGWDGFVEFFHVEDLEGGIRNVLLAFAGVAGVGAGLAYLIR

Bcl-2-like protein 1 [9] = molecular target: T2, Bcl-2-like protein 1; assay: Binding affinity to recombinant His-tagged human Bcl-xL expressed in Escherichia coli assessed as inhibition constant by SPR analysis
[10] = molecular target: T1, Apoptosis regulator Bcl-2; assay: Inhibition of Flu-BakBH3 binding to GST-tagged Bcl-2 (unknown origin) preincubated for 10 mins followed by Flu-BakBH3 addition and measured after 30 mins by competitive fluorescence polarization assay
Bcl-2-like protein 2 = molecular target: T4, Bcl-2-like protein 2 (Homo sapiens, UniProt Q92843); assay: Binding affinity to Bcl-w (unknown origin) assessed as inhibition constant by competitive fluorescence polarization assay
T4 sequence (Q92843 whole entry): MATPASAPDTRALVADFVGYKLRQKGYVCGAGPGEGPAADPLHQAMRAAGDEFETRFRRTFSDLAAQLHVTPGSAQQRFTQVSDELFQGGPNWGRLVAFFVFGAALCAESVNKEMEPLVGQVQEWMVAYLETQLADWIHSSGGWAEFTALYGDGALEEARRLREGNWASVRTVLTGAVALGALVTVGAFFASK

[11] = Half-life in human; assay type: ADME
[12] = molecular target: T3, Induced myeloid leukemia cell differentiation protein Mcl-1; assay: Binding affinity to Mcl-1 (unknown origin) assessed as inhibition constant by TR-FRET assay
RS4-11 = assay: Induction of apoptosis in human RS4-11 cells; assay type: functional, cell-based
[13] = molecular target: T1, Apoptosis regulator Bcl-2; assay: Binding affinity to recombinant His-tagged human Bcl-2 expressed in Escherichia coli assessed as inhibition constant by SPR analysis

CCOC(=O)C1=C(N)Oc2ccc(Br)cc2C1C(C#N)C(=O)OCC (stereo not given)
pIC50 [1]: 5.05

O=[N+]([O-])c1ccccc1Nc1nnc(-c2c[nH]c3ccccc23)o1
pIC50 [2]: 5.37

CC(C)(C)c1ccc(C(=O)NCCN2C(=O)c3cccc4c(Sc5ccc(Br)cc5)ccc(c34)C2=O)cc1
pIC50 [3]: 5.68
pIC50 [4]: 5.10

COc1c(O)cc(O)c2c(=O)cc(-c3ccc(O)c(O)c3)oc12
pKd [5]: 4.44

CC1=C(C2=C(C)C(=O)C3C(C(C)C)=C(O)C(O)=CC3C2=O)C(=O)c2cc(O)c(O)c(C(C)C)c2C1=O (stereo not given)
pKi (Bcl-2-like protein 1 [6]): 6.18
pKi [7]: 7.46
pKi [8]: 7.60

CCCCCCCCCCCCCCCC(=O)N[C@H](C(=O)N[C@@H](C)C(=O)N[C@@H](CCC(N)=O)C(=O)N[C@@H](CCC(=O)O)C(=O)N[C@@H](CCCNC(=N)N)C(=O)N[C@@H](CCCNC(=N)N)C(=O)N[C@H](C(=O)NCC(=O)N[C@@H](CC(=O)O)C(=O)N[C@@H](CCC(=O)O)C(=O)N[C@@H](Cc1ccccc1)C(N)=O)[C@@H](C)CC)[C@@H](C)CC (HELM PEPTIDE1{[CCCCCCCCCCCCCCCC(=O)[*:2]].I.A.Q.E.R.R.I.G.D.E.F.[am]}$$$$V2.0)
pKi (Bcl-2-like protein 1 [9]): 7.65

Cc1cc2c(C(C)C)c(O)c(O)cc2c(O)c1-c1c(C)cc2c(C(C)C)c(O)c(O)cc2c1O [APOGOSSYPOL]
pEC50 [10]: 5.55

CC1(C)CCC(c2ccc(Cl)cc2)=C(CN2CCN(c3ccc(C(=O)NS(=O)(=O)c4ccc(N[C@H](CCN5CCOCC5)CSc5ccccc5)c(S(=O)(=O)C(F)(F)F)c4)cc3)CC2)C1 [NAVITOCLAX]
pKi (Bcl-2-like protein 2): ≥ 9.00

CC1(C)CCC(CN2CCN(c3ccc(C(=O)NS(=O)(=O)c4ccc(NCC5CCOCC5)c([N+](=O)[O-])c4)c(Oc4cnc5[nH]ccc5c4)c3)CC2)=C(c2ccc(Cl)cc2)C1 [VENETOCLAX]
half-life [11]: 26 h
pKi [12]: < 6.35
pEC50 (RS4-11): 8.52

Ac-IAQERRIGDEF-NH2
pKi [13]: 8.02
